Source: PMC9962964, “^68Ga-Labeled [Thz^14]Bombesin(7–14) Analogs: Promising GRPR-Targeting Agonist PET Tracers with Low Pancreas Uptake” (Molecules, 2023)
Read-outs that look alike come from different tables or passages of the source.

Experiments:
[1] = target: T1, GRPR (Homo sapiens, UniProt P30550); experiment: Fluorometric calcium release assay in PC-3 cells; assay type: cell-based; set-up: generated using GRPR-expressing PC-3 cells; endogenous in cells; host or cells: PC-3 cells; conditions: 50 nM ligand
Method: Following previously published procedures, 5 × 10^4 PC-3 cells in 100 μL of growth media were seeded per well in a 96-well, clear bottom black plate 24 h before the assay. The loading buffer (100 μL/well), containing a calcium-sensitive dye (FLIPR Calcium 6 assay kit), was added to the 96-well plate. After incubation at 37 °C for 2 h, the plate was placed in a FlexStation 3 microplate reader (Molecular Devices). […] Agonistic/antagonistic properties were determined using the relative fluorescent unit (RFU = max–min).

[2] = pH 7.4
Method: Briefly, aliquots (2 μL) of the ^68Ga-labeled peptides were added into a 15 mL falcon tube containing 3 mL of n-octanol and 3 mL of 0.1 mol/L DPBS (pH 7.4). The mixture was vortexed for 1 min and then centrifuged at 3000 rpm for 15 min. Samples of the n-octanol (1 mL) and buffer (1 mL) layers were collected and measured in a gamma counter. LogD7.4 was calculated using the following equation: LogD7.4 = log10 [(counts in the n-octanol phase)/(counts in the buffer phase)].

[3] = Ex vivo biodistribution in PC-3 tumor-bearing mice; set-up: species or system NRG mice; conditions: mouse, 1 h post-injection; for tissue to tissue ratio at 1 h: male, NRG (NOD.Cg-Rag1^tm1Mom Il2rg^tm1Wjl/SzJ), iv, total radioactivity; for tissue uptake at 1 h: intravenous
Method: For biodistribution studies, the mice were injected with the radiotracer (2–4 MBq) via the tail vein as described above. For blocking, the mice were co-injected with 100 μg of [D-Phe^6,Leu-NHEt^13,des-Met^14]Bombesin(6–14). At 1 h post-injection, the mice were anesthetized through isoflurane inhalation and euthanized through CO2 inhalation. Blood was collected through a cardiac puncture, and organs/tissues of interest were collected, weighed, and counted using a Perkin Elmer (Waltham, MA, USA) Wizard2 2480 automatic gamma counter.

[4] = 15 min post-injection
Method: PET/CT imaging, biodistribution, and in vivo stability studies were conducted on male NOD.Cg-Rag1^tm1Mom Il2rg^tm1Wjl/SzJ (NRG) mice, following previously published procedures. The experiments were conducted according to the guidelines established by the Canadian Council on Animal Care and approved by the Animal Ethics Committee of the University of British Columbia (protocol number A20-0113, approved on 30 September 2020). […] Mice were used for PET/CT imaging and biodistribution studies when the tumor grew to 5–8 mm in diameter over around 4 weeks.
At 15 min post-injection, mice were sedated and euthanized, and urine and blood were collected. The plasma was extracted from whole blood by adding CH3CN (500 μL), vortex, centrifugation, and the separation of supernatant. The plasma and urine samples were analyzed via radio-HPLC using the conditions for quality control of these ^68Ga-labeled radioligands (Table S3).

[5] = system: PC-3 tumor xenografts; experiment: PET/CT imaging of PC-3 tumor xenografts; assay type: in vivo, NRG mice; conditions: 1 h post-injection
Method: PET/CT imaging experiments were performed on a Siemens (Knoxville, TN) Inveon micro PET/CT scanner. The tumor-bearing mouse was injected with 3–5 MBq of ^68Ga-labeled tracer through a lateral caudal tail vein under anesthesia, followed by recovery and roaming freely in its cage during the uptake period. At 50 min post-injection, a 10 min CT scan was conducted first for the localization and attenuation correction after segmentation for reconstructing the PET images, followed by a 10 min static PET imaging acquisition.

[6] = target: T1, GRPR; set-up: generated using GRPR-expressing PC-3 cells; endogenous in cells; method as in PMID 21552898, PMID 7809097; conditions: Schally group; cited from earlier work
[7] = target: T1, GRPR; experiment: In vitro competition binding assay with [125I-Tyr4]Bombesin on PC-3 cells; set-up: generated using GRPR-expressing PC-3 cells; endogenous in cells; host or cells: PC-3 cells; conditions: displacement of [125I-Tyr4]Bombesin, n = 3
Method: PC-3 cells were seeded in 24-well, poly-D-lysine plates at 2 × 10^5 cells/well 24–48 h prior to the assay. […] Then, the plates were incubated for about 60 min at 37 °C. […] Data were analyzed using nonlinear regression (one binding site model for competition assay) with GraphPad (San Diego, CA, USA) Prism 8.4.3 software.

T1 sequence (P30550 whole entry): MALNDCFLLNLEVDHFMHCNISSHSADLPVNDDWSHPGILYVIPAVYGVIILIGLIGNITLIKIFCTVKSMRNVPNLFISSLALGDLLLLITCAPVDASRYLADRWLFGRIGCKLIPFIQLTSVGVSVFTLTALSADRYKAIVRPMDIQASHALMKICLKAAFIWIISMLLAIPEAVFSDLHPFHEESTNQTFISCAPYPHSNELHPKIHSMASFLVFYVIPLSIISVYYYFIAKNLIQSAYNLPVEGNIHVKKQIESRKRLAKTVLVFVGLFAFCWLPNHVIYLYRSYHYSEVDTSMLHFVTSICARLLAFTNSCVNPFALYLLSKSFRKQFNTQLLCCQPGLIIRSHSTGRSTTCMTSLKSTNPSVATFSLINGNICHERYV

In the case of `Nc1ncnc2c1ncn2[C@@H]1O[C@H](COP(=O)(O)OP(=O)(O)OP(=O)(O)O)[C@@H](O)[C@H]1O` [ATP, adenosine triphosphate], the “Ca2+ efflux (RFU = max–min)” value [1] is reported as 334 ± 39.0 RFUs.
With `CC(C)C[C@H](NC(=O)[C@H](Cc1c[nH]cn1)NC(=O)CNC(=O)[C@@H](NC(=O)[C@H](C)NC(=O)[C@H](Cc1c[nH]c2ccccc12)NC(=O)[C@H](CCC(N)=O)NC(=O)[C@@H](Cc1ccc2ccccc2c1)NC(=O)CN1CCC(NC(=O)CN2CCN(CC(=O)O)CCN(CC(=O)O)CCN(CC(=O)O)CC2)CC1)C(C)C)C(=O)N1CSC[C@H]1C(N)=O` [[^68Ga]Ga-TacBOMB3, metal not drawn] the logD [2] was -2.55 ± 0.03, the tissue to tissue ratio at 1 h ([3]; tumor and bone, n = 4, read-out: Tumor/bone uptake ratio) was 29.9 ± 8.5 and the tissue to tissue ratio at 1 h ([3]; tumor and intestines, n = 4, read-out: Tumor/intestines uptake ratio) was 4.93 ± 0.84. It also gave a tissue to tissue ratio at 1 h ([3]; tumor and kidney, n = 4, read-out: Tumor/kidney uptake ratio) of 1.34 ± 0.58, a tissue to tissue ratio at 1 h ([3]; tumor and muscle, n = 4, read-out: Tumor/muscle uptake ratio) of 23.5 ± 9.61 and a tissue to tissue ratio at 1 h ([3]; tumor and pancreas, n = 4, read-out: Tumor/pancreas uptake ratio) of 2.21 ± 0.4. For the same compound, the tissue to tissue ratio at 1 h ([3]; tumor and whole blood, n = 4, read-out: Tumor/blood uptake ratio) was 5.61 ± 2.33, the tissue uptake at 1 h ([3]; PC-3 tumor, n = 4, read-out: PC-3 tumor uptake) was 5.09 ± 0.54 %ID/g and the tissue uptake at 1 h ([3]; blood, n = 4, read-out: Blood uptake) was 1.06 ± 0.51 %ID/g. It also gave a tissue uptake at 1 h ([3]; brain, muscle, fat, bone, liver, stomach, heart, and spleen, read-out: Uptake values for the brain, muscle, fat, bone, liver, stomach, heart, and spleen) of under 1 %ID/g, a tissue uptake at 1 h ([3]; fat, n = 4, read-out: Fat uptake) of 0.19 ± 0.18 %ID/g and a tissue uptake at 1 h ([3]; heart, n = 4, read-out: Heart uptake) of 0.35 ± 0.18 %ID/g. For the same compound, the tissue uptake at 1 h ([3]; intestines, n = 4, read-out: Intestines uptake) was 1.06 ± 0.26 %ID/g, the tissue uptake at 1 h ([3]; kidneys, n = 4, read-out: Kidneys uptake) was 4.61 ± 2.72 %ID/g and the tissue uptake at 1 h ([3]; liver, n = 4, read-out: Liver uptake) was 0.65 ± 0.19 %ID/g. For the same compound, the tissue uptake at 1 h ([3]; lungs, n = 4, read-out: Lungs uptake) was 1.63 ± 0.75 %ID/g, the tissue uptake at 1 h ([3]; muscle, n = 4, read-out: Muscle uptake) was 0.24 ± 0.12 %ID/g and the tissue uptake at 1 h ([3]; pancreas, n = 4, read-out: Pancreas uptake) was 2.41 ± 0.72 %ID/g. For the same compound, the tissue uptake at 1 h ([3]; spleen, n = 4, read-out: Spleen uptake) was 0.5 ± 0.32 %ID/g, the tissue uptake at 1 h ([3]; stomach, n = 4, read-out: Stomach uptake) was 0.82 ± 0.37 %ID/g and the tissue uptake at 1 h ([3]; testes, n = 4, read-out: Testes uptake) was 0.37 ± 0.06 %ID/g. The “intact fraction in plasma” value ([4]; mouse plasma, n = 3) was 27.3 ± 4.84%, the “intact tracer in urine” value ([4]; mouse urine) was “no intact” and the “visualization of PC-3 tumor xenografts in PET images” value [5] was “clearly visualized”. The excretion pathway ([5]; PET images) was “primarily excreted via the renal pathway”.
For “D-2-Nal-[Leu^13ψThz^14]Bombesin(7–14) [RC-3965-II]”, the “binding affinity to GRPR” value [6] is listed as “picomolar binding affinity”.
For “D-Phe-[Leu^13ψThz^14]Bombesin(7–14) [RC-3950-II]”, the “binding affinity to GRPR” value [6] is given as “picomolar binding affinity”.
For “D-Tpi-[Leu^13ψThz^14]Bombesin(7–14) [RC-3910-II]”, the “binding affinity to GRPR” value [6] is given as “picomolar binding affinity”.
For “Ga-TacBOMB2: nonradioactive Ga-complexed standard of TacBOMB2 (FQWAVGHLX; Ga-DOTA-Pip (4-amino-(1-carboxymethyl)piperidine) on the N-terminus; residue 1 is D-Phe; X9 = Thz (thiazoline/thiazolidine-4-carboxylic acid, named thiazoline in the text) replacing Met14, normal Leu1)”, the Ki [7] was 7.62 ± 0.19 nM.
In the case of “[D-Phe^6,Leu-NHEt^13,des-Met^14]Bombesin(6–14)”, the “Ca2+ efflux (RFU = max–min)” value [1] is reported as 25.3 ± 1.92 RFUs.
For bombesin, the “Ca2+ efflux (RFU = max–min)” value [1] was 754 ± 38.3 RFUs.
